Patent US20260184691A1, “INHIBITORS AND DEGRADERS OF PIP4K PROTEIN” (Larkspur Biosciences, Inc., priority 2022, published 2026)

These compounds were tested against T1, endogenous PIP4K2C C-terminally tagged with HiBiT peptide in MOLT-4 cells (Homo sapiens, UniProt Q8TBX8) (assay: HiBiT PIP4K2C degradation assay in MOLT-4 cells). Settings: 24 hours, 10-point dose response, top concentration 10 micromolar, read-out: HiBIT-degradation MOLT4 PIP4k2C 24 hours DC50.
T1 construct: to C-terminally tag endogenous PIP4K2C with HiBiT peptide; host or cells: MOLT-4 (CRISPR-Cas9 knock-in clone)
T1 sequence (Q8TBX8 1-421): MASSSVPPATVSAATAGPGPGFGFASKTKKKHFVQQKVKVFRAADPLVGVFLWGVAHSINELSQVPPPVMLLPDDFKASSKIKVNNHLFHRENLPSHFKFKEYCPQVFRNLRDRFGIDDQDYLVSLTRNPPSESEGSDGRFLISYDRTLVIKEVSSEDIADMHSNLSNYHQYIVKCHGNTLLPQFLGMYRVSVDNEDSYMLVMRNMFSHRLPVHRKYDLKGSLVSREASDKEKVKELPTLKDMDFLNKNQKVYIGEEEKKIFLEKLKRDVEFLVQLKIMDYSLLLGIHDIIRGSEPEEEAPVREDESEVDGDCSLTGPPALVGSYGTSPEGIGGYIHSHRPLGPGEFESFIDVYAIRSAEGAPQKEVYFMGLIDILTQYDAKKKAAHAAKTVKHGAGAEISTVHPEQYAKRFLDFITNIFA
Type: cell-based
Method in brief: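 Cells bearing C-terminal HiBiT knock-in were exposed to a 10-point, 3-fold dilution series (top 10 micromolar, duplicate) for 24 h at 37C, 5% CO2. Remaining tagged protein read by lytic HiBiT luminescence; DC50 from Hill-equation fit.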

| DC50 [nM] | Compound |
| --- | --- |
| < 500 | O=C1CCC(N2Cc3cc(OCCCCCCCCCN4CCC5(CC4)CCN(c4cncc(Nc6ncc(Cl)c(-c7cccc(-c8ccccc8)c7)n6)c4)C5=O)ccc3C2=O)C(=O)N1 (centres unmarked) [Compound 53, 3-(5-((9-(2-(5-((4-([1,1′-biphenyl]-3-yl)-5-chloropyrimidin-2-yl)amino)pyridin-3-yl)-1-oxo-2,8-diazaspiro[4.5]decan-8-yl)nonyl)oxy)-1-oxoisoindolin-2-yl)piperidine-2,6-dione] |
| < 500 | O=C1CCC(N2Cc3cc(OCCCCCC(=O)N4CCC5(CC4)CCN(c4cncc(Nc6ncc(Cl)c(-c7cccc(-c8ccccc8)c7)n6)c4)C5=O)ccc3C2=O)C(=O)N1 (centres unmarked) [Compound 88, 3-(5-((6-(2-(5-((4-([1,1′-biphenyl]-3-yl)-5-chloropyrimidin-2-yl)amino)pyridin-3-yl)-1-oxo-2,8-diazaspiro[4.5]decan-8-yl)-6-oxohexyl)oxy)-1-oxoisoindolin-2-yl)piperidine-2,6-dione] |
| 1000 to 5000 | O=C(CCCCCOc1cccc2c1C(=O)N(C1CCC(=O)NC1=O)C2=O)NCCCCCC(=O)Nc1cncc(Nc2ncc(Cl)c(-c3cccc(-c4ccccc4)c3)n2)c1 (centres unmarked) [Compound 83, N-(5-((4-([1,1′-biphenyl]-3-yl)-5-chloropyrimidin-2-yl)amino)pyridin-3-yl)-6-(6-((2-(2,6-dioxopiperidin-3-yl)-1,3-dioxoisoindolin-4-yl)oxy)hexanamido)hexanamide] |
| 1000 to 5000 | Cn1c(=O)n(C2CCC(=O)NC2=O)c2cc(OCC(=O)NCCCCCCCCCC(=O)Nc3cncc(Nc4ncc(Cl)c(-c5cccc(-c6ccccc6)c5)n4)c3)ccc21 (centres unmarked) [Compound 51, N-(5-((4-([1,1′-biphenyl]-3-yl)-5-chloropyrimidin-2-yl)amino)pyridin-3-yl)-10-(2-((3-(2,6-dioxopiperidin-3-yl)-1-methyl-2-oxo-2,3-dihydro-1H-benzo[d]imidazol-5-yl)oxy)acetamido)decanamide] |
| < 500 | O=C1CCC(N2Cc3cc(OCCCCC(=O)N4CCC5(CC4)CCN(c4cncc(Nc6ncc(Cl)c(-c7cccc(-c8ccccc8)c7)n6)c4)C5=O)ccc3C2=O)C(=O)N1 (centres unmarked) [Compound 87, 3-(5-((5-(2-(5-((4-([1,1′-biphenyl]-3-yl)-5-chloropyrimidin-2-yl)amino)pyridin-3-yl)-1-oxo-2,8-diazaspiro[4.5]decan-8-yl)-5-oxopentyl)oxy)-1-oxoisoindolin-2-yl)piperidine-2,6-dione] |
| < 500 | O=C1CCC(Nc2ccc(C3CCN(CC(=O)N4CCC5(CC4)CCN(c4cncc(Nc6ncc(Cl)c(-c7cccc(C8CCCC8)c7)n6)c4)C5=O)CC3)cc2)C(=O)N1 (centres unmarked) [Compound 192, 3-((4-(1-(2-(2-(5-((5-chloro-4-(3-cyclopentylphenyl)pyrimidin-2-yl)amino)pyridin-3-yl)-1-oxo-2,8-diazaspiro[4.5]decan-8-yl)-2-oxoethyl)piperidin-4-yl)phenyl)amino)piperidine-2,6-dione] |
| 500 to 1000 | O=C(COc1ccc(NC2CCC(=O)NC2=O)cc1)NCCCCCCCCCC(=O)Nc1cncc(Nc2ncc(Cl)c(-c3cccc(-c4ccccc4)c3)n2)c1 (centres unmarked) [Compound 55, N-(5-((4-([1,1′-biphenyl]-3-yl)-5-chloropyrimidin-2-yl)amino)pyridin-3-yl)-10-(2-(4-((2,6-dioxopiperidin-3-yl)amino)phenoxy)acetamido)decanamide] |
| < 500 | O=C1CCC(Nc2ccc(N3CCC(CN4CCC5(CC4)CCN(c4cncc(Nc6ncc(Cl)c(N7CCCC(C8CC8)C7)n6)c4)C5=O)CC3)cc2)C(=O)N1 (centres unmarked) [Compound 212, 3-((4-(4-((2-(5-((5-chloro-4-(3-cyclopropylpiperidin-1-yl)pyrimidin-2-yl)amino)pyridin-3-yl)-1-oxo-2,8-diazaspiro[4.5]decan-8-yl)methyl)piperidin-1-yl)phenyl)amino)piperidine-2,6-dione] |
